Data published in ChEMBL document CHEMBL1201862, “PubChem BioAssay data set” (2004).
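Values below derive from 48-hour exposures of cells grown in 96-well plates, with endpoints linearly interpolated between the two concentrations bracketing the appropriate inhibition level. Abbreviation: GI50, concentration required for 50% inhibition of growth.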 Calls of active or inactive are those of the source. Rule as the data show it: active = GI50 up to about 1.1 µM and inactive = higher.

What was measured:
Assay in all cases: NCI-60 cell line screen, 48 h
HOP-62 = test system: HOP-62
TK-10 = test system: TK-10
OVCAR-5 = test system: OVCAR-5
SF-268 = test system: SF-268
SK-MEL-28 = test system: SK-MEL-28
A498 = test system: A498
EKVX = test system: EKVX
U-251 = test system: U-251
UO-31 = test system: UO-31
IGROV-1 = test system: IGROV-1
HOP-92 = test system: HOP-92
HCT-116 = test system: HCT-116
SK-MEL-5 = test system: SK-MEL-5
OVCAR-4 = test system: OVCAR-4
SW-620 = test system: SW-620
Malme-3M = test system: Malme-3M
SF-295 = test system: SF-295
MOLT-4 = test system: MOLT-4
RPMI-8226 = test system: RPMI-8226

Measured: GI50

CC1=C2[C@@H](c3ccccc3)C3C=CC2(C=C3C(F)(F)F)N(C(=O)NC2CCCCC2)C1=O (some centres not stated)
inactive: HOP-62 68.1 µM | TK-10 > 100 µM | OVCAR-5 > 100 µM | SF-268 91 µM | SK-MEL-28 > 100 µM | A498 > 100 µM | EKVX 69 µM | U-251 > 100 µM | UO-31 51.5 µM | IGROV-1 > 100 µM | HOP-92 > 100 µM | HCT-116 32.4 µM | SK-MEL-5 43.5 µM | OVCAR-4 > 100 µM | SW-620 > 100 µM | Malme-3M > 100 µM | SF-295 > 100 µM | MOLT-4 16.2 µM

COc1cccc(C2SC(=N)Nc3c2c(C)nn3C(=O)Cc2ccccc2)c1 (configuration not stated)
inactive: HOP-62 > 100 µM | TK-10 > 100 µM | SF-268 > 100 µM | SK-MEL-28 > 100 µM | A498 > 100 µM | RPMI-8226 > 100 µM | EKVX > 100 µM | UO-31 > 100 µM | IGROV-1 > 100 µM | HCT-116 > 100 µM | SK-MEL-5 > 100 µM | SW-620 > 100 µM | Malme-3M > 100 µM | SF-295 > 100 µM | MOLT-4 > 100 µM

C1CCC(OCc2nnn3c2CCC3)OC1 (configuration not stated)
inactive: HOP-62 > 100 µM | TK-10 > 100 µM | OVCAR-5 > 100 µM | SK-MEL-28 > 100 µM | EKVX > 100 µM | U-251 > 100 µM | UO-31 > 100 µM | IGROV-1 > 100 µM | HOP-92 > 100 µM | HCT-116 > 100 µM | SK-MEL-5 > 100 µM | OVCAR-4 > 100 µM | SW-620 > 100 µM | Malme-3M > 100 µM | SF-295 > 100 µM | MOLT-4 > 100 µM

Cn1cc(C(=O)c2ccccc2)ccc1=O
inactive: HOP-62 > 100 µM | TK-10 > 100 µM | OVCAR-5 > 100 µM | SF-268 > 100 µM | SK-MEL-28 > 100 µM | RPMI-8226 > 100 µM | EKVX > 100 µM | U-251 > 100 µM | UO-31 > 100 µM | IGROV-1 > 100 µM | HOP-92 > 100 µM | HCT-116 > 100 µM | SK-MEL-5 > 100 µM | OVCAR-4 > 100 µM | SW-620 > 100 µM | Malme-3M > 100 µM | SF-295 > 100 µM | MOLT-4 > 100 µM

CCOC(=O)C1(Cc2ccc3ccccc3c2)CCCCC(=O)N1 (configuration not stated)
inactive: HOP-62 44.6 µM | TK-10 56.1 µM | SF-268 49.8 µM | SK-MEL-28 41 µM | RPMI-8226 3.78 µM | EKVX 54.8 µM | U-251 41.1 µM | UO-31 23.9 µM | IGROV-1 57 µM | HOP-92 13.1 µM | OVCAR-4 36.1 µM | SW-620 27.5 µM | Malme-3M 11.9 µM | SF-295 8.89 µM | MOLT-4 7.35 µM

COc1ccc(Nc2nc3ccccc3nc2-c2cccs2)cc1
inactive: HOP-62 69.7 µM | TK-10 > 100 µM | OVCAR-5 > 100 µM | SF-268 > 100 µM | SK-MEL-28 > 100 µM | A498 42.6 µM | EKVX > 100 µM | U-251 > 100 µM | UO-31 > 100 µM | IGROV-1 > 100 µM | HOP-92 51.5 µM | HCT-116 > 100 µM | SK-MEL-5 65.3 µM | OVCAR-4 > 100 µM | SW-620 > 100 µM | Malme-3M > 100 µM | SF-295 70.6 µM | MOLT-4 > 100 µM

CCCCCCCCCC/C=C/C=O
inactive: TK-10 > 100 µM | OVCAR-5 > 100 µM | SF-268 > 100 µM | SK-MEL-28 > 100 µM | A498 > 100 µM | EKVX > 100 µM | U-251 > 100 µM | UO-31 > 100 µM | IGROV-1 > 100 µM | HOP-92 > 100 µM | HCT-116 > 100 µM | SK-MEL-5 > 100 µM | SW-620 > 100 µM | Malme-3M > 100 µM | SF-295 > 100 µM | MOLT-4 70.3 µM

CC(C)OP(=O)(OC(C)C)c1ccc2c(c1)OCCOCCOCCOCCO2
inactive: HOP-62 > 100 µM | TK-10 > 100 µM | SF-268 > 100 µM | SK-MEL-28 > 100 µM | A498 > 100 µM | RPMI-8226 > 100 µM | EKVX > 100 µM | UO-31 > 100 µM | IGROV-1 > 100 µM | HCT-116 > 100 µM | SK-MEL-5 > 100 µM | SW-620 > 100 µM | Malme-3M > 100 µM | SF-295 > 100 µM | MOLT-4 > 100 µM

CCCCOC(=O)NC(Nc1ccc(S(N)(=O)=O)cc1)(C(F)(F)F)C(F)(F)F
inactive: HOP-62 > 100 µM | TK-10 > 100 µM | OVCAR-5 > 100 µM | SF-268 > 100 µM | SK-MEL-28 > 100 µM | A498 > 100 µM | RPMI-8226 > 100 µM | EKVX > 100 µM | U-251 > 100 µM | UO-31 79.8 µM | HCT-116 > 100 µM | Malme-3M > 100 µM | MOLT-4 > 100 µM

OC1CSCCSCCCSCCSC1
inactive: HOP-62 > 100 µM | TK-10 > 100 µM | OVCAR-5 > 100 µM | SF-268 > 100 µM | SK-MEL-28 > 100 µM | A498 > 100 µM | RPMI-8226 > 100 µM | EKVX > 100 µM | U-251 > 100 µM | UO-31 > 100 µM | IGROV-1 > 100 µM | HOP-92 > 100 µM | HCT-116 > 100 µM | SK-MEL-5 > 100 µM | OVCAR-4 > 100 µM | SW-620 > 100 µM | SF-295 > 100 µM | MOLT-4 > 100 µM

COc1cc2oc(-c3ccc(O)cc3)cc(=O)c2c(O)c1C1OC(CO)C(O)C(O)C1O (configuration not stated)
inactive: HOP-62 > 100 µM | TK-10 > 100 µM | OVCAR-5 > 100 µM | SF-268 > 100 µM | SK-MEL-28 > 100 µM | A498 > 100 µM | RPMI-8226 > 100 µM | EKVX > 100 µM | U-251 > 100 µM | UO-31 > 100 µM | IGROV-1 > 100 µM | HCT-116 > 100 µM | SK-MEL-5 > 100 µM | OVCAR-4 > 100 µM | SW-620 11.5 µM | Malme-3M > 100 µM | SF-295 > 100 µM | MOLT-4 > 100 µM

N#CCC(=O)N/N=C1/C(=O)N(c2ccc(Cl)cc2)C(=O)C(=O)C1c1nc2ccccc2s1 (configuration not stated)
inactive: HOP-62 > 100 µM | TK-10 > 100 µM | OVCAR-5 > 100 µM | SF-268 55.5 µM | SK-MEL-28 > 100 µM | A498 > 100 µM | EKVX 89.3 µM | U-251 > 100 µM | UO-31 28.5 µM | IGROV-1 > 100 µM | HOP-92 28.2 µM | HCT-116 53.7 µM | SK-MEL-5 > 100 µM | OVCAR-4 > 100 µM | SW-620 > 100 µM | Malme-3M > 100 µM | SF-295 > 100 µM
